Where two headings read alike, the source gives them in different places.
Columns and labels:
[1] = tested on: S. aureus ATCC 6538; assay: Growth inhibition test (DGHM, Essai 2, Tables A-C), 72 h at 37°C; non/A/B/C = without or with inactivating substances A, B, C; assay type: cell-based, Staphylococcus aureus
Description: (§1) Un autre essai a été réalisé à partir des solutions suivantes : • 100 ml d'une solution à 0,1 % de digluconate de chlorhexidine (pH 6) et • 100 ml d'une solution à 0,1 % de Bardac 22®.
(§2) L'activité de ces solutions, seules ou en combinaison a été plus particulièrement testée vis-à-vis de Staphylococcus aureus ATCC 6538, Escherichia coli ATCC 11229 et Candida albicans ATCC 10231.
(§3) Les tests ont été réalisés conformément au protocole décrit dans le Chapitre I/2.1 et 2.2 de Richtlinien für die Prüfung und Bewertung chemischer Desinfektionsverfahren der DGHM, Stand 1.1., 1981).
(§4) Les Tableaux A, B et C illustrent respectivement l'activité bactéricide et fongicide d'une solution aqueuse à 0,1 % de digluconate de chlorhexidine, d'une solution aqueuse à 0,1 % de Bardac 22® et d'un mélange à part égale des deux composés. Les protocoles dont ces Tableaux illustrent les résultats comprennent une incubation de 72 heures à 37°C et l'utilisation, comme témoins, des substances inactivantes suivantes : A : Tween® 80 3 % + lécithine 0,3 % + cystéine 0,1 %; B : Tween® 80 3 % + saponine 3 % + cystéine 0,1 % + histidine 0,1 %; C : Tween® 80 3 % + lécithine 0,3 % + histidine 0,1 % + thiosulfate de sodium 0,5 %.
(§5) Dans ces Tableaux, le signe "+" indique une croissance et le signe "-" l'absence de croissance.

[2] = tested on: E. coli ATCC 11229; assay: as above; assay type: cell-based, Escherichia coli
Description: as §1, §2, §3, §4, §5

[3] = tested on: Candida albicans ATCC 1031; assay: as above; assay type: cell-based
Description: Un autre essai a été réalisé à partir des solutions suivantes : • 100 ml d'une solution à 0,1 % de digluconate de chlorhexidine (pH 6) et • 100 ml d'une solution à 0,1 % de Bardac 22®. […]
as §3, §4, §5

[4] = tested on: spermatozoïdes; assay: Spermicidal action: vitality of spermatozoa (eosin-nigrosin, 100 spermatozoa examined); assay type: cell-based; conditions: Homo sapiens, Sperm, solution 0,5 %, read-out: vitalité des spermatozoïdes
From the text: Les différents échantillons de sperme (une goutte de sperme/échantillon) sont obtenus à partir de volontaires sains.
Une goutte de sperme est traitée par l'éosinenigrosine. Un frottis est ensuite réalisé et cent spermatozoïdes sont examinés au microscope. Les cellules mortes sont colorées en rouge, soit totalement, soit partiellement. Les cellules vivantes sont incolores.
Les substances étudiées ont été, le Bardac® et le digluconate de chlorhexidine, testés seuls et en association conformément à l'invention. Les différentes étapes du protocole sont indiquées aux Tableaux IV à VI.
Le temps de contact maximum des différentes substances et du sperme a été limité à 3 minutes afin de garantir l'efficacité de la méthode dans les conditions d'utilisation. La concentration des solutions actives dans le sperme a été limitée à 10 % afin de diminuer les risques de toxicité des produits pour les muqueuses. TABLEAU IV

In the case of `[H]/N=C(\N/C(=N/[H])NCCCCCCNC(=N)NC(=N)Nc1ccc(Cl)cc1)Nc1ccc(Cl)cc1` [Chlorhexidine, digluconate de chlorhexidine, reference compound], the croissance ([1]; Conc. 0,1 % (vol/vol), A) is reported as “+”, the croissance ([1]; Conc. 0,1 % (vol/vol), B) is reported as “+” and the croissance ([1]; Conc. 0,1 % (vol/vol), C) is reported as “+”. For the same compound, the croissance ([1]; Conc. 0,1 % (vol/vol), non) was “+”, the croissance ([1]; Conc. 0,05 % (vol/vol), A) was “+” and the croissance ([1]; Conc. 0,5 % (vol/vol), A) was “+”. The croissance ([1]; Conc. 0,05 % (vol/vol), B) was “+”, the croissance ([1]; Conc. 0,5 % (vol/vol), B) was “+” and the croissance ([1]; Conc. 0,05 % (vol/vol), C) was “+”. For the same compound, the croissance ([1]; Conc. 0,5 % (vol/vol), C) was “+”, the croissance ([1]; Conc. 0,05 % (vol/vol), non) was “+” and the croissance ([1]; Conc. 0,5 % (vol/vol), non) was “-”. The croissance ([1]; Conc. 1,0 % (vol/vol), A) was “+”, the croissance ([1]; Conc. 1,0 % (vol/vol), B) was “+” and the croissance ([1]; Conc. 1,0 % (vol/vol), C) was “+”. The croissance ([1]; Conc. 1,0 % (vol/vol), non) was “-”, the croissance ([1]; Conc. 0,00625 % (vol/vol), A) was “+” and the croissance ([1]; Conc. 0,00625 % (vol/vol), B) was “+”. The croissance ([1]; Conc. 0,00625 % (vol/vol), C) was “+”, the croissance ([1]; Conc. 0,00625 % (vol/vol), non) was “+” and the croissance ([1]; Conc. 0,0125 % (vol/vol), A) was “+”. The croissance ([1]; Conc. 0,0125 % (vol/vol), B) was “+”, the croissance ([1]; Conc. 0,0125 % (vol/vol), C) was “+” and the croissance ([1]; Conc. 0,0125 % (vol/vol), non) was “+”. The croissance ([1]; Conc. 0,025 % (vol/vol), A) was “+”, the croissance ([1]; Conc. 0,025 % (vol/vol), B) was “+” and the croissance ([1]; Conc. 0,025 % (vol/vol), C) was “+”. The croissance ([1]; Conc. 0,025 % (vol/vol), non) was “+”, the “concentration en substance active inhibant la croissance” value ([1]; antiseptique seul) was 0,0005% and the croissance ([2]; Conc. 0,1 % (vol/vol), A) was “+”. For the same compound, the croissance ([2]; Conc. 0,1 % (vol/vol), B) was “+”, the croissance ([2]; Conc. 0,1 % (vol/vol), C) was “+” and the croissance ([2]; Conc. 0,1 % (vol/vol), non) was “+”. For the same compound, the croissance ([2]; Conc. 0,05 % (vol/vol), A) was “+”, the croissance ([2]; Conc. 0,5 % (vol/vol), A) was “+” and the croissance ([2]; Conc. 0,05 % (vol/vol), B) was “+”. For the same compound, the croissance ([2]; Conc. 0,5 % (vol/vol), B) was “+”, the croissance ([2]; Conc. 0,05 % (vol/vol), C) was “+” and the croissance ([2]; Conc. 0,5 % (vol/vol), C) was “+”. The croissance ([2]; Conc. 0,05 % (vol/vol), non) was “+”, the croissance ([2]; Conc. 0,5 % (vol/vol), non) was “-” and the croissance ([2]; Conc. 1,0 % (vol/vol), A) was “+”. The croissance ([2]; Conc. 1,0 % (vol/vol), B) was “+”, the croissance ([2]; Conc. 1,0 % (vol/vol), C) was “+” and the croissance ([2]; Conc. 1,0 % (vol/vol), non) was “-”. The croissance ([2]; Conc. 0,00625 % (vol/vol), A) was “+”, the croissance ([2]; Conc. 0,00625 % (vol/vol), B) was “+” and the croissance ([2]; Conc. 0,00625 % (vol/vol), C) was “+”. For the same compound, the croissance ([2]; Conc. 0,00625 % (vol/vol), non) was “+”, the croissance ([2]; Conc. 0,0125 % (vol/vol), A) was “+” and the croissance ([2]; Conc. 0,0125 % (vol/vol), B) was “+”. For the same compound, the croissance ([2]; Conc. 0,0125 % (vol/vol), C) was “+”, the croissance ([2]; Conc. 0,0125 % (vol/vol), non) was “+” and the croissance ([2]; Conc. 0,025 % (vol/vol), A) was “+”. For the same compound, the croissance ([2]; Conc. 0,025 % (vol/vol), B) was “+”, the croissance ([2]; Conc. 0,025 % (vol/vol), C) was “+” and the croissance ([2]; Conc. 0,025 % (vol/vol), non) was “+”. The “concentration en substance active inhibant la croissance” value ([2]; antiseptique seul) was 0,0005%, the croissance ([3]; Conc. 0,1 % (vol/vol), A) was “+” and the croissance ([3]; Conc. 0,1 % (vol/vol), B) was “+”. For the same compound, the croissance ([3]; Conc. 0,1 % (vol/vol), C) was “+”, the croissance ([3]; Conc. 0,1 % (vol/vol), non) was “+” and the croissance ([3]; Conc. 0,05 % (vol/vol), A) was “+”. The croissance ([3]; Conc. 0,5 % (vol/vol), A) was “+”, the croissance ([3]; Conc. 0,05 % (vol/vol), B) was “+” and the croissance ([3]; Conc. 0,5 % (vol/vol), B) was “+”. The croissance ([3]; Conc. 0,05 % (vol/vol), C) was “+”, the croissance ([3]; Conc. 0,5 % (vol/vol), C) was “+” and the croissance ([3]; Conc. 0,05 % (vol/vol), non) was “+”. For the same compound, the croissance ([3]; Conc. 0,5 % (vol/vol), non) was “+”, the croissance ([3]; Conc. 1,0 % (vol/vol), A) was “+” and the croissance ([3]; Conc. 1,0 % (vol/vol), B) was “+”. For the same compound, the croissance ([3]; Conc. 1,0 % (vol/vol), C) was “+”, the croissance ([3]; Conc. 1,0 % (vol/vol), non) was “-” and the croissance ([3]; Conc. 0,00625 % (vol/vol), A) was “+”. For the same compound, the croissance ([3]; Conc. 0,00625 % (vol/vol), B) was “+”, the croissance ([3]; Conc. 0,00625 % (vol/vol), C) was “+” and the croissance ([3]; Conc. 0,00625 % (vol/vol), non) was “+”. The croissance ([3]; Conc. 0,0125 % (vol/vol), A) was “+”, the croissance ([3]; Conc. 0,0125 % (vol/vol), B) was “+” and the croissance ([3]; Conc. 0,0125 % (vol/vol), C) was “+”. For the same compound, the croissance ([3]; Conc. 0,0125 % (vol/vol), non) was “+”, the croissance ([3]; Conc. 0,025 % (vol/vol), A) was “+” and the croissance ([3]; Conc. 0,025 % (vol/vol), B) was “+”. For the same compound, the croissance ([3]; Conc. 0,025 % (vol/vol), C) was “+”, the croissance ([3]; Conc. 0,025 % (vol/vol), non) was “+” and the “concentration en substance active inhibant la croissance” value ([3]; antiseptique seul) was 0,001%. The viability at 0.5 % ([4]; 1 min, 1 Min, 5 % dans le sperme) was 77 ± 10.8%, the viability at 0.5 % ([4]; 1 min, 1 Min, 10 % dans le sperme) was 77.2 ± 5.6% and the viability at 0.5 % ([4]; 0.05 h, 3 Min, 5 % dans le sperme) was 78 ± 5.7%. It also gave a viability at 0.5 % ([4]; 0.05 h, 3 Min, 10 % dans le sperme) of 75.5%.
